Patent publication US20190048054A1, “Mesenchymal Stem Cells Expressing Biomarkers that Predict the Effectiveness of Mesenchymal Stem Cells for Treating Diseases and Disorders” (priority 2014, published 2019)

Assays:
[1] = system: animal models for human diseases; conditions: administration of recombinant TSG-6; cited from earlier work
hMSCs = test: Cell viability of hMSCs after estradiol treatment (photographs); assay type: cell-based, human; conditions: estradiol treatment for 4 days (FIG. 2C)

Row | Compound | beneficial effects compared with hMSCs [1] | cell viability (hMSCs)
1 | recombinant TSG-6: naturally occurring anti-inflammatory protein of 35 kDa, SEQ ID NO: 1; given as recombinant protein | reproduced most of the beneficial effects of the hMSCs | –
2 | C[C@]12CC[C@@H]3c4ccc(O)cc4CC[C@H]3[C@@H]1CC[C@@H]2O [estradiol] | – | without affecting cell viability
